Data taken from US6369069B1 (Aventis Pharma Deutschland GmbH, priority 1998, dated 2002).

What follows are molecules tested on Na^+-dependent Cl^−/HCO3^− exchanger (NCBE) (assay: Inhibition of the Na+-dependent Cl−/HCO3− exchanger (NCBE) in human endothelial cells (pHi recovery, BCECF fluorescence, FLIPR)). Conditions: 10 μM.
Assay type: cell-based
Procedure: Inhibition of the Na^+-dependent Cl^−/HCO3^− exchanger (NCBE) in human endothelial cells
Human endothelial cells (ECV-304) were detached form culture flasks with the aid of trypsin/EDTA buffer (0.05/0.02% in phosphate buffer) and, after centrifugation (100 g, 5 min), taken up in a buffered saline solution (mmol/l: 115 NaCl, 20 NH4Cl, 5 KCl, 1 CaCl2, 1 MgSO4, 20 N-(2-hydroxyethyl)-piperazine-N[…]-2-ethanesulfonic acid (HEPES), 5 glucose and 1 g/l of bovine serum albumin; pH 7.4). This cell suspension was incubated at 37 °C. for 20 min with 5 μM BCECF acetoxymethyl ester. The cells were then washed and resuspended in a sodium- and bicarbonate-free buffer solution (mmol/l: 5 HEPES, 133.8 choline chloride, 4.7 KCl, 1.25 MgCl2, 0.97 K2HPO4, 0.23 KH2PO4, 5 glucose; pH 7.4).
For the subsequent fluorescence measurement in the FLIPR (Fluorescent Imaging Plate Reader), 100 μl of this cell suspension in each case containing 20,000 cells were added by pipette per well of a 96-well microtiter plate and this microtiter plate was centrifuged (100 g, 5 min). In the FLIPR, 100 μl of buffer solution in each case were then removed from a further prepared microtiter plate and added by pipette to each of the 96 wells of the measuring plate. In this case, for a 100% control, i.e. a recovery of the intracellular pH (pHi) by means of the NCBE, a bicarbonate- and sodium-containing buffer solution (mmol/l: 5 HEPES, 93.8 NaCl, 40 NaHCO3, 4.7 KCl, 1.25 CaCl2, 1.25 MgCl2, 0.97 Na2HPO4, 0.23 NaH2PO4, 5 glucose; pH 7.4) which contained 50 μM HOE 642 was used. For a 0% control, i.e. no pHi recovery at all, a bicarbonate-free, sodium-containing buffer solution (mmol/l: 5 HEPES, 133.8 NaCl, 4.7 KCl, 1.25 CaCl2, 1.25 MgCl2, 0.97 Na2HPO4, 0.23 NaH2PO4, 5 glucose; pH 7.4) to which 50 μM HOE 642 were also added was employed. The compounds according to the invention were added in various concentrations of the sodium- and bicarbonate-containing solution. After addition of the buffer solutions to the dye-loaded acidified cells situated in the measuring plate, the increase in the fluorescence intensity which corresponded to an increase in the pHi was determined in each well of the microtiter plate.
The kinetics were in this case recorded at 35° C. over a period of 2 minutes. The increase in the fluorescence intensities for different concentrations of the compounds according to the invention was related to the two controls and from this the inhibitory action of the substances was determined.
With `N#CNS(=O)(=O)c1ccccc1-c1ccc(CN(Cc2cccs2)C(=O)NCc2ccccc2)cc1` [Example 295] the “Residual activity % of the NCBE at 10 μM” value was 8.0%. For `N#CNS(=O)(=O)c1ccccc1-c1ccc(CN(Cc2ccccn2)C(=O)C(=O)c2cccs2)cc1` [Example 196], the “Residual activity % of the NCBE at 10 μM” value was 62.8%. For `N#CNS(=O)(=O)c1ccccc1-c1ccc(CN(Cc2cccc3ccccc23)C(=O)CCc2cccs2)cc1` [Example 289], the “Residual activity % of the NCBE at 10 μM” value was 39.2%. For `N#CNS(=O)(=O)c1ccccc1-c1ccc(CN(Cc2ccc(C(F)(F)F)cc2)C(=O)C(c2ccccc2)c2ccccc2)cc1` [Example 119], the “Residual activity % of the NCBE at 10 μM” value was 75.7%. With `N#CNS(=O)(=O)c1ccccc1-c1ccc(CN(Cc2ccc(F)cc2)C(=O)Cc2cccs2)cc1` [Example 147] the “Residual activity % of the NCBE at 10 μM” value was 53.2%. In the case of `COCCC(=O)N(Cc1ccc(-c2ccccc2S(=O)(=O)NC#N)cc1)C1CCCc2ccccc21` (stereo not drawn) [Example 325], the “Residual activity % of the NCBE at 10 μM” value is reported as 33.8%. In the case of `N#CNS(=O)(=O)c1ccccc1-c1ccc(CN(Cc2cccs2)C(=O)Cc2cccs2)cc1` [Example 250], the “Residual activity % of the NCBE at 10 μM” value is reported as 41.1%. In the case of `CN(Cc1ccc(-c2ccccc2S(=O)(=O)NC#N)cc1)C(=O)C(=O)c1cccs1` [Example 198], the “Residual activity % of the NCBE at 10 μM” value is reported as 51.1%. `N#CNS(=O)(=O)c1ccccc1-c1ccc(CN(C(=O)Cc2csc3ccccc23)C2CC2)cc1` [Example 213] was tested, and the “Residual activity % of the NCBE at 10 μM” value was 45.0%. For `C[C@H](c1ccccc1)N(Cc1ccc(-c2ccccc2S(=O)(=O)NC#N)cc1)C(=O)C(c1ccccc1)c1ccccc1` [Example 118], the “Residual activity % of the NCBE at 10 μM” value was 95.3%. For `COCCN(Cc1ccc(-c2ccccc2S(=O)(=O)NC#N)cc1)C(=O)Cc1ccsc1` [Example 227], the “Residual activity % of the NCBE at 10 μM” value was 50.6%. In the case of `COc1ccc(CN(Cc2ccc(-c3ccccc3S(=O)(=O)NC#N)cc2)C(=O)Cc2ccc(Cl)cc2)c(OC)c1` [Example 154], the “Residual activity % of the NCBE at 10 μM” value is reported as 36.2%. `COc1ccc(CN(Cc2ccc(-c3ccccc3S(=O)(=O)NC#N)cc2)C(=O)CCC2CCCCC2)cc1` [Example 9] was tested, and the “Residual activity % of the NCBE at 10 μM” value was 86.6%. With `Cc1ccc(CN(Cc2ccc(-c3ccccc3S(=O)(=O)NC#N)cc2)C(=O)c2cc3ccccc3s2)cc1` [Example 75] the “Residual activity % of the NCBE at 10 μM” value was 80.3%. In the case of `COc1ccccc1C(=O)N(Cc1ccc(-c2ccccc2S(=O)(=O)NC#N)cc1)Cc1cccc(C)c1` [Example 331], the “Residual activity % of the NCBE at 10 μM” value is reported as 37.6%. In the case of `N#CNS(=O)(=O)c1ccccc1-c1ccc(CN(Cc2ccccc2Cl)C(=O)Cc2ccccc2)cc1` [Example 121], the “Residual activity % of the NCBE at 10 μM” value is reported as 72.1%. With `N#CNS(=O)(=O)c1ccccc1-c1ccc(CN(Cc2nc3ccccc3[nH]2)C(=O)Cc2csc3ccccc23)cc1` [Example 216] the “Residual activity % of the NCBE at 10 μM” value was 62.2%. With `COc1cccc(CN(Cc2ccc(-c3ccccc3S(=O)(=O)NC#N)cc2)C(=O)c2ccccc2Cl)c1` [Example 106] the “Residual activity % of the NCBE at 10 μM” value was 98.9%. `Cc1ccccc1CN(Cc1ccc(-c2ccccc2S(=O)(=O)NC#N)cc1)C(=O)Cc1cccs1` [Example 312] was tested, and the “Residual activity % of the NCBE at 10 μM” value was 12.5%. With `CC(C)=CCCC(C)=CCN(Cc1ccc(-c2ccccc2S(=O)(=O)NC#N)cc1)C(=O)CCOc1ccccc1` [Example 343] the “Residual activity % of the NCBE at 10 μM” value was 48.1%. With `N#CNS(=O)(=O)c1ccccc1-c1ccc(CN(C(=O)CCC2CCCCC2)C2CCCCC2)cc1` [Example 12] the “Residual activity % of the NCBE at 10 μM” value was 92.9%. In the case of `N#CNS(=O)(=O)c1ccccc1-c1ccc(CN(CCOc2ccccc2)C(=O)COc2ccccc2)cc1` [Example 166], the “Residual activity % of the NCBE at 10 μM” value is reported as 57.9%. `N#CNS(=O)(=O)c1ccccc1-c1ccc(CN(Cc2ccccc2)C(=O)C(N)c2ccccc2)cc1` (stereo not drawn) [Example 241] was tested, and the “Residual activity % of the NCBE at 10 μM” value was 66.0%. In the case of `CC(C)CN(Cc1ccc(-c2ccccc2S(=O)(=O)NC#N)cc1)C(=O)c1cccs1` [Example 82], the “Residual activity % of the NCBE at 10 μM” value is reported as 99.8%. For `CCN(Cc1ccc(-c2ccccc2S(=O)(=O)NC#N)cc1)C(=O)Cc1csc2ccccc12` [Example 215], the “Residual activity % of the NCBE at 10 μM” value was 65.7%. For `CC(C)(C)OC(=O)C(c1ccccc1)N(Cc1ccc(-c2ccccc2S(=O)(=O)NC#N)cc1)C(=O)Cc1cccs1` (stereo not drawn) [Example 269], the “Residual activity % of the NCBE at 10 μM” value was 94.4%. With `CC(C)CN(Cc1ccc(-c2ccccc2S(=O)(=O)NC#N)cc1)C(=O)c1cc2ccccc2s1` [Example 72] the “Residual activity % of the NCBE at 10 μM” value was 86.3%. In the case of `CCCC(=O)N(CCO)Cc1ccc(-c2ccccc2S(=O)(=O)NC#N)cc1` [Example 2], the “Residual activity % of the NCBE at 10 μM” value is reported as 78.1%. `N#CNS(=O)(=O)c1ccccc1-c1ccc(CN(Cc2ccc(Cl)cc2Cl)C(=O)CCc2cccs2)cc1` [Example 288] was tested, and the “Residual activity % of the NCBE at 10 μM” value was 63.1%. With `CCN(Cc1ccc(-c2ccccc2S(=O)(=O)NC#N)cc1)C(=O)Cc1c[nH]c2ccccc12` [Example 207] the “Residual activity % of the NCBE at 10 μM” value was 31.0%. For `COc1ccc(CC(=O)N(Cc2ccc(-c3ccccc3S(=O)(=O)NC#N)cc2)CC2CC2)cc1` [Example 175], the “Residual activity % of the NCBE at 10 μM” value was 93.2%. `COCCC(=O)N(Cc1ccc(-c2ccccc2S(=O)(=O)NC#N)cc1)Cc1ccccc1F` [Example 326] was tested, and the “Residual activity % of the NCBE at 10 μM” value was 25.6%. `Cc1ccc(CN(Cc2ccc(-c3ccccc3S(=O)(=O)NC#N)cc2)C(=O)C(c2ccccc2)c2ccccc2)cc1` [Example 115] was tested, and the “Residual activity % of the NCBE at 10 μM” value was 84.0%. With `Cc1ccc(CN(Cc2ccc(-c3ccccc3S(=O)(=O)NC#N)cc2)C(=O)c2cccs2)cc1` [Example 85] the “Residual activity % of the NCBE at 10 μM” value was 51.1%. For `COc1ccccc1C(=O)N(Cc1ccc(-c2ccccc2S(=O)(=O)NC#N)cc1)Cc1ccc2ccccc2c1` [Example 330], the “Residual activity % of the NCBE at 10 μM” value was 14.4%. In the case of `N#CNS(=O)(=O)c1ccccc1-c1ccc(CN(C(=O)CC2CCCC2)C2CCc3ccccc32)cc1` (stereo not drawn) [Example 364], the “Residual activity % of the NCBE at 10 μM” value is reported as 52.6%. For `COc1ccc(CN(Cc2ccc(-c3ccccc3S(=O)(=O)NC#N)cc2)C(=O)c2ccc(C)cc2)cc1` [Example 70], the “Residual activity % of the NCBE at 10 μM” value was 94.7%. With `N#CNS(=O)(=O)c1ccccc1-c1ccc(CN(Cc2ccccc2)C(=O)C2CCCCC2)cc1` [Example 13] the “Residual activity % of the NCBE at 10 μM” value was 74.7%. In the case of `N#CNS(=O)(=O)c1ccccc1-c1ccc(CN(Cc2cccc3ccccc23)C(=O)Cc2cccs2)cc1` [Example 271], the “Residual activity % of the NCBE at 10 μM” value is reported as 15.9%. In the case of `C#CCN(Cc1ccc(-c2ccccc2S(=O)(=O)NC#N)cc1)C(=O)C(=O)c1ccco1` [Example 248], the “Residual activity % of the NCBE at 10 μM” value is reported as 66.6%. With `CC(C)(C)CC(=O)N(CCc1cccs1)Cc1ccc(-c2ccccc2S(=O)(=O)NC#N)cc1` [Example 159] the “Residual activity % of the NCBE at 10 μM” value was 61.2%. With `CC(C)(C)OC(=O)C(c1ccccc1)N(Cc1ccc(-c2ccccc2S(=O)(=O)NC#N)cc1)C(=O)CCc1cccs1` (stereo not drawn) [Example 287] the “Residual activity % of the NCBE at 10 μM” value was 51.1%. `CC(C)NC(=O)N(Cc1ccc(-c2ccccc2S(=O)(=O)NC#N)cc1)Cc1cccc(Cl)c1` [Example 306] was tested, and the “Residual activity % of the NCBE at 10 μM” value was 90.2%.

Same assay, conditions: 10 μM compound; human endothelial cells (ECV-304); related to 100% and 0% pHi recovery controls
In the case of `COCCOc1cc(-c2ccccc2S(=O)(=O)NC#N)ccc1CN(Cc1ccccc1)S(=O)(=O)c1cccs1` [Example 558, 4′-{[Benzyl(thiophene-2-sulfonyl)amino]methyl}-3′-(2-methoxy)ethoxy-biphenyl-2-sulfonylcyanamide], the “Residual activity of the NCBE at 10 μM” value is reported as 30%.

Same assay, conditions: compound at 10 μM; R(3) to R(7) hydrogen series
With `N#CNS(=O)(=O)c1ccccc1-c1ccc(CN(CC2(c3ccccc3)CCCC2)C(=O)Cc2ccco2)cc1` [Example 394] the “Residual activity % of the NCBE at 10 μM” value was 72.5%.

Same assay, conditions: compound at 10 μM; sub-table with R7 substituent
With `Cc1ccc(-c2ccc(CN(Cc3ccc4ccccc4c3)C(=O)Cc3ccc(Cl)cc3)cc2)c(S(=O)(=O)NC#N)c1` [Example 531] the “Residual activity % of the NCBE at 10 μM” value was 75.6%. For `Cc1ccc(-c2ccc(CN(Cc3ccc4ccccc4c3)C(=O)CC3CCCCC3)cc2)c(S(=O)(=O)NC#N)c1` [Example 547], the “Residual activity % of the NCBE at 10 μM” value was 76.5%. With `Cc1ccc(-c2ccc(CN(Cc3cccc4ccccc34)C(=O)Cc3ccsc3)cc2)c(S(=O)(=O)NC#N)c1` [Example 538] the “Residual activity % of the NCBE at 10 μM” value was 80.3%. For `Cc1ccc(-c2ccc(CN(Cc3ccccc3)C(=O)C(C)c3cccs3)cc2)c(S(=O)(=O)NC#N)c1` (stereo not drawn) [Example 521], the “Residual activity % of the NCBE at 10 μM” value was 88.2%. For `Cc1ccc(-c2ccc(CN(Cc3cccc(Cl)c3Cl)C(=O)CC3CCCCC3)cc2)c(S(=O)(=O)NC#N)c1` [Example 552], the “Residual activity % of the NCBE at 10 μM” value was 61.5%. For `Cc1ccc(-c2ccc(CN(Cc3ccc4ccccc4c3)C(=O)Cc3cccs3)cc2)c(S(=O)(=O)NC#N)c1` [Example 515], the “Residual activity % of the NCBE at 10 μM” value was 68.9%.
